For 37 molecules, IC50 results are on record in patent publication US11673898B2, “Substituted inhibitors of menin-MLL and methods of use” (Kura Oncology, Inc., priority 2016, dated 2023).

By IC50 is commonly meant the concentration that gives 50% inhibition.

Each structure is given as a SMILES string.

The target in this assay is T1, Menin MLL 4-43 (Homo sapiens, UniProt O00255).
T1 sequence (O00255 1-610): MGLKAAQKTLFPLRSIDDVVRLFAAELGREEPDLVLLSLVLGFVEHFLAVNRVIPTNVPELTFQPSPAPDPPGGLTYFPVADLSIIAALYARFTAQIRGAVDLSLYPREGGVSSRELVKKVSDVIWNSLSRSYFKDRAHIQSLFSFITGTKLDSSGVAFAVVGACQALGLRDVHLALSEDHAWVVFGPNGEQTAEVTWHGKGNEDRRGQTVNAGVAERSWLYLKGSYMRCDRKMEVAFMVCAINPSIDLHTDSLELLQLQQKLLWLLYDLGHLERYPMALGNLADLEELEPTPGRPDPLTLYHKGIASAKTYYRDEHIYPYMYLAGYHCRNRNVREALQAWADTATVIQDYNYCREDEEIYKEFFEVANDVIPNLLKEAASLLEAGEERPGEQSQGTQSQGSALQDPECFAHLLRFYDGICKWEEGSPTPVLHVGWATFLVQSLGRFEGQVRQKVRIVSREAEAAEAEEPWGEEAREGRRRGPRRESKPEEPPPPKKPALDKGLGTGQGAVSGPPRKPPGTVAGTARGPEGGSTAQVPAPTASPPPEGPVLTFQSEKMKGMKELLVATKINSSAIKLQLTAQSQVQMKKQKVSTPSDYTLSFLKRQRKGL
Briefly: Fluorescence polarization (FP) competition assay of the menin-MLL interaction. The conditions noted are these: fluorescence polarization assay; read-out: Menin MLL 4-43 IC50. The format is binding. On the technique in general: Fluorescence polarisation rises when a labelled molecule tumbles more slowly, as on binding a larger partner.
For `Cc1c(CN2CCC(Nc3ncnc4sc(CC(F)(F)F)cc34)CC2)ccc2c1cc(C#N)n2C[C@H](C)N1CCN(S(=O)(=O)C2CC2)CC1` [Compound 115], the IC50 was less than 50 nM.

Consider `Cc1c(CN2CCC(Nc3ncnc4sc(CC(F)(F)F)cc34)CC2)ccc2c1cc(C#N)n2C[C@H](C)N1CCN(S(=O)(=O)CC(C)C)CC1` [Compound 116], for which the half-maximal inhibitory concentration (IC50) fell in the range of 50 to 250 nM.

Regarding `Cc1c(CN2CCC(Nc3ncnc4sc(CC(F)(F)F)cc34)CC2)ccc2c1cc(C#N)n2C[C@H](C)N1CCN(C(=O)C2CC2)CC1` [Compound 117], the half-maximal inhibitory concentration (IC50) fell in the range of 50 to 250 nM.

`Cc1c(CN2CCC(Nc3ncnc4sc(CC(F)(F)F)cc34)CC2)ccc2c1cc(C#N)n2C[C@H](C)N1CCN(C(=O)C(F)(F)F)CC1` [Compound 118]: the half-inhibitory concentration (IC50) is 20 to 1000 nM.

As to `CCNS(=O)(=O)N1CCN([C@@H](C)Cn2c(C#N)cc3c(C)c(CN4CCC(Nc5ncnc6sc(CC(F)(F)F)cc56)CC4)ccc32)CC1` [Compound 119], the concentration for half-maximal inhibition (IC50) is less than 50 nM.

As to `Cc1c(CN2CCC(Nc3ncnc4sc(CC(F)(F)F)cc34)CC2)ccc2c1cc(C#N)n2C[C@H](C)N1CCN(S(=O)(=O)NCC(C)C)CC1` [Compound 120], the concentration for half-maximal inhibition (IC50) was in the range of 50 to 250 nM.

For `Cc1c(CN2CCC(Nc3ncnc4sc(CC(F)(F)F)cc34)CC2)ccc2c1cc(C#N)n2C[C@H](C)N1CCN(S(=O)(=O)N2CCC2)CC1` [Compound 121], the IC50 was 50 to 250 nM.

For the molecule `Cc1c(CN2CCC(Nc3ncnc4sc(CC(F)(F)F)cc34)CC2)ccc2c1cc(C#N)n2C[C@H](C)N1CCN(C(=O)CC(F)(F)F)CC1` [Compound 122], the IC50 fell in the range of 50 to 250 nM.

For the molecule `COCCNS(=O)(=O)N1CCN([C@@H](C)Cn2c(C#N)cc3c(C)c(CN4CCC(Nc5ncnc6sc(CC(F)(F)F)cc56)CC4)ccc32)CC1` [Compound 123], the half-maximal inhibitory concentration (IC50) is less than 50 nM.

`Cc1c(CN2CCC(Nc3ncnc4sc(CC(F)(F)F)cc34)CC2)ccc2c1cc(C#N)n2CC(C)N1C[C@@H](C)N(S(=O)(=O)CF)[C@H](C)C1` (stereo partly shown) [Compound 124]: the IC50 fell in the range of 50 to 250 nM.

With `Cc1c(CN2CCC(Nc3ncnc4sc(CC(F)(F)F)cc34)CC2)ccc2c1cc(C#N)n2C[C@H](C)N1CCN(S(=O)(=O)NCC(F)F)CC1` [Compound 125], the half-inhibitory concentration (IC50) was 50 to 250 nM.

Consider `Cc1c(CN2CCC(Nc3ncnc4sc(CC(F)(F)F)cc34)CC2)ccc2c1cc(C#N)n2C[C@H](C)N1CCN(S(=O)(=O)CC(F)(F)F)CC1` [Compound 126], for which the half-inhibitory concentration (IC50) was in the range of 50 to 250 nM.

With `Cc1c(CN2CCC(Nc3ncnc4sc(CC(F)(F)F)cc34)CC2)ccc2c1cc(C#N)n2C[C@H](C)N1CCN(S(=O)(=O)C2CCC2)CC1` [Compound 127], the IC50 fell in the range of 50 to 250 nM.

Take `CNS(=O)(=O)C1CCN(C(C)Cn2c(C#N)cc3c(C)c(CN4CCC(Nc5ncnc6sc(CC(F)(F)F)cc56)CC4)ccc32)CC1` (stereo not shown) [Compound 128]: the IC50 lay in the range of 50 to 250 nM.

On to `Cc1c(CN2CCC(Nc3ncnc4sc(CC(F)(F)F)cc34)CC2)ccc2c1cc(C#N)n2C[C@H](C)N1CCN(S(=O)(=O)NCCF)CC1` [Compound 129], for which the IC50 was less than 50 nM.

As to `Cc1c(CN2CCC(Nc3ncnc4sc(CC(F)(F)F)cc34)CC2)ccc2c1cc(C#N)n2C[C@H](C)N1CCN(S(=O)(=O)NCC(F)(F)F)CC1` [Compound 130], the IC50 fell in the range of 50 to 250 nM.

In the case of `Cc1c(CN2CCC(Nc3ncnc4sc(CC(F)(F)F)cc34)CC2)ccc2c1cc(C#N)n2C[C@H](C)N1CCN(S(=O)(=O)NCCO)CC1` [Compound 131], the IC50 is less than 50 nM.

`COCC(=O)N1CCN([C@@H](C)Cn2c(C#N)cc3c(C)c(CN4CCC(Nc5ncnc6sc(CC(F)(F)F)cc56)CC4)ccc32)CC1` [Compound 133]: the IC50 lay within 50 to 250 nM.

On to `Cc1c(CN2CCC(Nc3nc(N)nc4sc(CC(F)(F)F)cc34)CC2)ccc2c1cc(C#N)n2C[C@H](C)N1CCN(C=O)CC1` [Compound 134], for which the IC50 is less than 50 nM.

Turning to `Cc1nc(NC2CCN(Cc3ccc4c(cc(C#N)n4C[C@H](C)N4CCN(C=O)CC4)c3C)CC2)c2cc(CC(F)(F)F)sc2n1` [Compound 136], the IC50 is less than 50 nM.

In the case of `Cc1nc(NC2CCN(Cc3ccc4c(cc(C#N)n4C[C@H](C)N4CCN(S(=O)(=O)CF)CC4)c3C)CC2)c2cc(CC(F)(F)F)sc2n1` [Compound 137], the IC50 was in the range of 50 to 250 nM.

Take `Cc1c(CN2CCC(Nc3ncnc4sc(CC(F)(F)F)cc34)CC2)ccc2c1cc(C#N)n2C[C@H](C)N1CCN(S(=O)(=O)N2CC2)CC1` [Compound 140]: the IC50 lay in the range of 50 to 250 nM.

On to `CCCNS(=O)(=O)N1CCN([C@@H](C)Cn2c(C#N)cc3c(C)c(CN4CCC(Nc5ncnc6sc(CC(F)(F)F)cc56)CC4)ccc32)CC1` [Compound 141], for which the IC50 is less than 50 nM.

Consider `CCCCNS(=O)(=O)N1CCN([C@@H](C)Cn2c(C#N)cc3c(C)c(CN4CCC(Nc5ncnc6sc(CC(F)(F)F)cc56)CC4)ccc32)CC1` [Compound 142], for which the IC50 fell in the range of 50 to 250 nM.

On to `Cc1c(CN2CCC(Nc3ncnc4sc(CC(F)(F)F)cc34)CC2)ccc2c1cc(C#N)n2C[C@H](C)N1CCN(C2=NCCO2)CC1` [Compound 143], for which the 50% inhibitory concentration (IC50) is 50 to 250 nM.

Consider `Cc1c(CN2CCC(Nc3ncnc4sc(CC(F)(F)F)cc34)CC2)ccc2c1cc(C#N)n2C[C@H](C)N1CCN(S(=O)(=O)C(F)F)CC1` [Compound 144], for which the concentration for half-maximal inhibition (IC50) lay within 50 to 250 nM.

Regarding `Cc1c(CN2CCC(Nc3ncnc4sc(CC(F)(F)F)cc34)CC2)ccc2c1cc(C#N)n2C[C@H](C)N1CCN(S(=O)(=O)CF)[C@H](C)C1` [Compound 145], the IC50 is 50 to 250 nM.

For the molecule `Cc1nc(NC2CCN(Cc3ccc4c(cc(C#N)n4C[C@H](C)N4CCN(S(=O)(=O)C5CC5)CC4)c3C)CC2)c2cc(CC(F)(F)F)sc2n1` [Compound 146], the half-maximal inhibitory concentration (IC50) lay within 50 to 250 nM.

On to `Cc1c(CN2CCC(Nc3nc(N)nc4sc(CC(F)(F)F)cc34)CC2)ccc2c1cc(C#N)n2C[C@H](C)N1CCN(S(=O)(=O)C2CC2)CC1` [Compound 147], for which the IC50 was less than 50 nM.

`Cc1c(CN2CCC(Nc3ncnc4sc(CC(F)(F)F)cc34)CC2)ccc2c1cc(C#N)n2C[C@H](C)N1CCNCC1` [Compound 148]: the IC50 is less than 50 nM.

On to `Cc1c(CN2CCC(Nc3nc(N)nc4sc(CC(F)(F)F)cc34)CC2)ccc2c1cc(C#N)n2C[C@H](C)N1CCN(S(=O)(=O)CF)CC1` [Compound 149], for which the IC50 was less than 50 nM.

For `Cc1c(CN2CCC(Nc3ncnc4sc(CC(F)(F)F)cc34)CC2)ccc2c1cc(C#N)n2C[C@H](C)N1CCN(P(C)(C)=O)CC1` [Compound 150], the IC50 lay within 50 to 250 nM.

With `Cc1c(CN2CCC(Nc3ncnc4sc(CC(F)(F)F)cc34)CC2)ccc2c1cc(C#N)n2C[C@H](C)N1C[C@@H](C)N(S(=O)(=O)CF)[C@@H](C)C1` [Compound 152], the IC50 lay in the range of 50 to 250 nM.

Regarding `[2H]C1([2H])N([C@@H](C)Cn2c(C#N)cc3c(C)c(CN4CCC(Nc5ncnc6sc(CC(F)(F)F)cc56)CC4)ccc32)C([2H])([2H])C([2H])([2H])N(S(C)(=O)=O)C1([2H])[2H]` [Compound 153], the IC50 lay within 50 to 250 nM.

In the case of `Cc1c(CN2CCC(Nc3ncnc4sc(CC(F)(F)F)cc34)CC2)ccc2c1cc(C#N)n2C[C@H](C)N1CCN(CC(N)=O)CC1` [Compound 154], the IC50 is less than 50 nM.

Regarding `Cc1c(CN2CCC(Nc3ncnc4sc(CC(F)(F)F)cc34)CC2)ccc2c1cc(C#N)n2C[C@H](C)N1CCN(C(C)C(N)=O)CC1` (stereo partly shown) [Compound 156], the IC50 is 50 to 250 nM.

As for `Cc1c(CN2CCC(Nc3ncnc4sc(CC(F)(F)F)cc34)CC2)ccc2c1cc(C#N)n2C[C@H](C)N1CCC(NP(C)(C)=O)CC1` [Compound 157], the IC50 lay within 20 to 1000 nM.
